d = 2'-deoxy (DNA)
Legend:
[1] = tested on: NgBR protein; assay: NgBR protein level after siRNA transfection of HUVEC; format: cell-based, human; conditions: 72 hours after transfection
Experimental: Single NgBR cDNA clones were isolated by sib selection and sequenced. A NgBR-HA was created in pIRESneo vector (BD, Palo Alto, Calif.), with the HA tag at the carboxy terminus. To access the physical interaction of NgBR with Am-Nogo-B, 50 μg of solubilized extracts of CHO cells expressing control vector (pIRESneo) or NgBR-HA was incubated with 25 μg of purified Am-Nogo-B or buffer for 2 hours at room temperature. The HA-tagged NgBR was immunoisolated with anti-HA immunobeads (Roche, Indianapolis, Ind.) and associated proteins analyzed by Western blotting. For the Western blots, expression of NgBR-HA was detected by using anti-HA (Roche) and NgBR (Imgenex), respectively, and beta-actin (Sigma) or Hsp90 (BD Biosciences-Pharmingen) was used to control for loading.
(§1) NgBR siRNA oligonucleotides (SEQ ID NOS:2-5) with 3′ dTdT overhangs were synthesized by Qiagen. Control siRNA in experiments refers to a nonsilencing (NS) siRNA (NS forward: UUCUCCGAACGUGUCACGU, SEQ ID NO:7; NS reverse: ACGUGACACGUUCGGAGAA, SEQ ID NO:8) designed and synthesized by Qiagen. HUVEC and CHO stable cell lines were transfected with siRNA by using Oligofectamine. Quantification of NgBR mRNA and protein, ligand binding assay, and migration assay were performed at 72 hours after transfection.

[2] = tested on: HUVEC; assay: Am-Nogo-B-mediated chemotaxis of HUVEC after siRNA transfection; format: cell-based, human; conditions: 72 hours after siRNA transfection
Experimental: (§2) Cell migration was examined in modified Boyden chambers using 10 nM each of purified recombinant AP, AP fusion of Nogo-66 (AP-Nogo-66) or Am-Nogo-B. The transwell inserts (Costar transwell inserts; Corning) were coated with a solution of 0.1% gelatin (Sigma) in PBS at 4° C. overnight and then air-dried. VEGF at 50 ng/mL (1.1 nM) or recombinant Am-Nogo-B at various concentrations dissolved in medium 199 containing 0.1% BSA was added in the bottom chamber of the Boyden apparatus. HUVEC (200,000 cells) suspended in a 100 μL aliquot of medium 199 containing 0.1% BSA was added to the upper chamber. After 5 hours incubation, cells on both sides of the membrane were fixed and stained with a Diff-Quik staining kit (Baxter Healthcare, Miami, Fla.). The average number of cells from five randomly chosen high-power (×400) fields on the lower side of the membrane was counted.
as §1

[3] = tested on: HUVEC; assay: AP-Am-Nogo-B binding to HUVEC after siRNA transfection; format: cell-based, human; conditions: 72 hours after siRNA transfection
Experimental: (§3) To detect AP-Am-Nogo-B binding, cultures were washed with Hanks' balanced salt solution (HBSS) containing 20 mM HEPES, pH 7.5, and 1 mg/mL BSA (HBH). The plates were then incubated with AP-Am-Nogo-B in DMEM containing 20 mM Hepes, pH 7.5, and 1 mg/mL BSA for 2 hours at 4° C. The bound AP-Am-Nogo-B was detected by using the Blue Substrate kit (Vector Laboratories). The blue staining was examined by using the ODYSSEY Infrared Imaging System (Li-Cor, Lincoln, Nebr.) and confirmed by microscopy. Alternatively, the bound AP-Am-Nogo-B was extracted with Triton X-100, and AP activity was colorimetrically quantified by using p-nitrophenyl phosphate (Sigma) as substrate after heat inactivation of endogenous AP. Non-specific binding was determined by measuring binding in the presence of a 100-fold molar excess of recombinant Am-Nogo-B lacking the AP fusion protein. Specific binding was determined by subtracting the non-specific binding from total binding. For determination of apparent Kd, the binding of AP-Am-Nogo-B was measured in triplicate as described above and the Kd value was quantified by using the Scatchard plot program of GraphPad PRISM (one-site binding, linear regression) using the ratio of bound ligand to free ligand as the y axis and bound ligand (pM) as the x axis.
as §1

[4] = tested on: HUVEC; assay: Tube formation of HUVEC in 3-D collagen cultures (total network length); format: cell-based, human; conditions: Am-Nogo-B 80 nM, HUVEC treated with siRNA
Experimental: HUVEC were resuspended (final concentration of 1×10^6) in a mixture containing rat tail type I collagen (1.5 mg/mL) 1/10 volume of 10×M199 and 1 M Hepes, neutralized with NaOH. Droplets (0.1 mL each) of the cell/collagen mixture were placed in cell culture dishes and allowed to polymerize for 15 minutes at 37° C. Growth medium containing either vehicle or agonist was then added to each well. HUVEC were allowed to form tube-like structures for 1-2 days. To evaluate tube formation in 3-D cultures, cells were photographed using the program OPENLAB (Improvision) and total-network length, defined as an elongation of cell into tube-like structures typically seen in 3-D cultures, was quantified in five fields for each replicate per experiment by using the measurement tools provided with OPENLAB.

[5] = target: T1, full-length NgBR (Homo sapiens, UniProt Q96E22); assay: AP-Am-Nogo-B binding after S2 siRNA in cells expressing the full-length NgBR; format: cell-based
T1 construct: expressed in transfected cells
T1 sequence (Q96E22 1-293): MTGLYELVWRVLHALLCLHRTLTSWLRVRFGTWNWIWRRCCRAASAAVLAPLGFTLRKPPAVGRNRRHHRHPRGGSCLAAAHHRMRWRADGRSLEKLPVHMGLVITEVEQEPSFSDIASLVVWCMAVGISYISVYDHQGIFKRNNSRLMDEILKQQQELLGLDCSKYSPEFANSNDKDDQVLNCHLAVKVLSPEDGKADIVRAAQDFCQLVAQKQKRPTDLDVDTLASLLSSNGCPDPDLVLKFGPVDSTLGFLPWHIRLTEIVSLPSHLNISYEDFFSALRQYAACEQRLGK
Experimental: as §3
NgBR siRNA oligonucleotides (SEQ ID NOS:2-5) with 3′ dTdT overhangs were synthesized by Qiagen. […]

[6] = tested on: NgBR mRNA; assay: NgBR mRNA by quantitative PCR after siRNA transfection of HUVEC; format: cell-based, human; conditions: 72 hours after transfection, normalized to 18S
Experimental: as §1
Total RNA from cells was isolated by using the RNeasy kit (Qiagen). Reverse transcription was then performed by using 100 ng of RNA and the Superscript First-Strand Synthesis System kit (Invitrogen). Real-time PCR analysis was done with the iCycler iQ detection system using the iQ SYBR green Supermix kit (Bio-Rad). The NgBR mRNA level was normalized by housekeeping gene 18S. The following primers were used for NgBR: forward, 5′-[…]-3′ (SEQ ID NO:9) and reverse, 5′-[…]-3′ (SEQ ID NO:10). The following primers were used for 18S: forward, 5′-[…]-3′ (SEQ ID NO:11) and reverse, 5′-[…]-3′ (SEQ ID NO:12).

[7] = tested on: Endothelial cells; assay: Blocking of AP-Am-Nogo-B binding to endothelial cells; conditions: 20 nM and 100 nM
Experimental: as §3, with “axis. […]” for “axis.”

[8] = tested on: Endothelial cells; assay: Am-Nogo-B-induced migration of endothelial cells, inhibition by NgBR ectodomain peptides or fusion protein; format: cell-based; conditions: endothelial cells (FIG. 35)
Experimental: as §2
Endothelial cells were incubated with vehicle (control) of one of peptides P1-P4 (200 nM each) in the presence of Am-Nogo-B (100 nM).
Similarly, treatment of endothelial cells with mFc-ecto, but not mFc, blocked Am-Nogo-B-induced cell migration (FIG. 35).

[9] = Lipid transferase activity, [1-14C]IPP incorporation into polyprenyl diphosphates; format: biochemical; conditions: 1 μg immunoisolated protein, 20 minutes at 37° C.
Experimental: NgBR and NgBR lacking the cytoplasmic domain (NgBR-CD) was immunoisolated from CHO cells expressing NgBR-HA or NgBR-CD by using anti-HA matrix beads. Lipid transferase activity was measured by determining the amount of [1-^14C]IPP (isopentenyl pyrophosphate) incorporated into butanol-extractable polyprenyl diphosphates. The activity was assayed in a 50 μL reaction containing 50 mM Hepes, pH 7.5, 2 mM MgCl2, 5 mM KF, 1 mM DTT, 0.5% CHAPS, 50 μM [1-^14C]IPP (0.15 μCi per reaction) and 50 μM allylic isoprenoid diphosphate (farnesyl diphosphate, geranylgeranyl diphosphate). The reaction was started by the addition of 1 μg of protein and allowed to proceed for 20 minutes at 37° C. Mouse liver extract (1 μg) was used as a positive control for the assay. The reaction was stopped by the addition of 0.5 mL of 1-butanol saturated with water, […] followed by the addition of 0.5 mL of 2 M KCl. An aliquot of the butanol phase was removed for scintillation counting using SafeScint scintillation (American Bioanalytic, Natick, Mass.).

S2: siRNA targeting the 3' untranslated region of NgBR; forward GGAAAUACAUAGACCUACA, reverse UGUAGGUCUAUGUAUUUCC (SEQ ID NO: 4, 5) (3' dTdT, sugars by position and backbone not given here)
NgBR protein level [1]: reduced | Am-Nogo-B-mediated chemotaxis of HUVEC [2]: abolished | binding of AP-Am-Nogo-B to HUVEC [3]: reduced | Am-Nogo-B-stimulated increase in tube formation after siRNA [4]: attenuated | binding of AP-Am-Nogo-B in cells expressing the full-length NgBR [5]: reduced | level of NgBR mRNA [6]: reduced

B1: mFc-ecto: Fc fusion of amino acids 52-116 of NgBR (SEQ ID NO:1), HA-, heptahistidine tagged fusion protein (protein)
chain: LGFTLRKPPAVGRNRRHHRHPRGGSCLAAAHHRMRWRADGRSLEKLPVHMGLVITEVEQEPSFSD
modifications: also: Fc fusion, HA tag, heptahistidine tag
binding of AP-Am-Nogo-B to endothelial cells in presence of Fc protein [7]: blocked | Am-Nogo-B-induced cell migration in presence of Fc protein [8]: blocked

B2: NgBR: human Nogo-B receptor, 293 amino acids, SEQ ID NO:1; immunoisolated as NgBR-HA from CHO cells (protein, listed as Homo sapiens)
chain: T1 sequence (Q96E22 1-293)
modifications: HA tag
notes: immunoisolated as NgBR-HA from CHO cells
lipid transferase activity [9]: negative
